Measured values reported in patent US6358883B1, “Pesticidal and parasiticidal use of 1-aryl-1-(substituted thio, sulfinyl and sulfonyl)-2-nitroethane compounds” (American Cyanamid Company, priority 1998, dated 2002).

Key:
Type in all cases: in vivo
[1] = tested on: Diabrotica undecimpunctata howardi, eggs-southern corn rootworm (SCR-Eggs); test: Southern corn rootworm eggs (SCR-Eggs) treated diet test; set-up: key: 0 = no effect; 1 = 10-25% kill; 2 = 26-35% kill; 3 = 36-45% kill; 4 = 46-55% kill; 5 = 56-65% kill; 6 = 66-75% kill; 7 = 76-85% kill; 8 = 86-99% kill; 9 = 100% kill; conditions: mortality after 7 days
Outline: (§1)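 Eggs of S. eridania or D. undecimpunctata howardi were set on artificial diet pretreated with test solution (10,000 ppm stock in 35% aqueous acetone, water dilutions) and dried. Wells were sealed with vented clear covers, and mortality was scored at day 7.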

[2] = tested on: Tetranychus urticae (OP-resistant strain), 2-spotted spider mite (TSM); test: 2-spotted spider mite (TSM) plant dip test; set-up: key: 0 = no effect; 1 = 10-25% kill; 2 = 26-35% kill; 3 = 36-45% kill; 4 = 46-55% kill; 5 = 56-65% kill; 6 = 66-75% kill; 7 = 76-85% kill; 8 = 86-99% kill; 9 = 100% kill; conditions: mortality after 2 days
Outline: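 Mortality counted 2 days after a 3 s agitated dip of infested Sieva lima bean plants. Compound came from a 10,000 ppm stock in 35% aqueous acetone, with further dilution in water. Each primary leaf carried about 100 OP-resistant mites, allowed to settle ~2 h before dipping.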

[3] = tested on: M. incognita (Root Knot Nematode) larvae; test: Evaluation of test compounds against M. incognita larvae in microtiter plate wells (movement score); conditions: larvae scored for movement after 20-24 hours; further: key: A score of '9' indicates inactive worms with a straight, sticklike morphology; A score of '8' indicates inactive worms with a limp, curled or curved morphology; A score of '7' indicates dead/paralyzed worms after 72 hours
Outline: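 Scoring is by larval movement: dead or paralyzed worms count as positive, and a "7" means dead/paralyzed at 72 hours. Freshly hatched root-knot larvae (50-65 per well) in buffered S Medium were incubated with compounds under plate sealers for 20-24 h before the first read.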

[4] = tested on: Diabrotica virgifera virgifera Leconte, 2nd instar western corn rootworm (WCR); test: Western corn rootworm (WCR) soil test; set-up: key: 0 = no effect; 1 = 10-25% kill; 2 = 26-35% kill; 3 = 36-45% kill; 4 = 46-55% kill; 5 = 56-65% kill; 6 = 66-75% kill; 7 = 76-85% kill; 8 = 86-99% kill; 9 = 100% kill
Outline: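 Ten 2nd-instar rootworm larvae are placed in jars of moist soil with millet seed and talc treated with 1.25 mg active ingredient (roughly 50 kg/ha) from a 35% acetone-in-water solution. After 5 days mortality is scored, counting missing larvae as dead.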

[5] = tested on: C. elegans (Bristol strain); test: Evaluation of test compounds against C. elegans (motility, 96-well plate); set-up: key: 9=complete kill in 4 hours; 8=complete kill in 24 hours; 7=markedly reduced motility in approximately 95% of worms in 24 hours; 0=normal motility, same as controls; conditions: motility at 4 and 24 hours
Outline: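 Activity is a semi-quantitative visual score of adult and larval movement, read at 4 h and 24 h post-immersion at 20 °C after gentle tapping. Worms were suspended in Na buffer in wells where compound, dissolved in 80% acetone, had been evaporated.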

[6] = tested on: Spodoptera eridania, 2nd instar larvae, southern armyworm (SAW); test: Southern armyworm (SAW) leaf dip test; set-up: key: 0 = no effect; 1 = 10-25% kill; 2 = 26-35% kill; 3 = 36-45% kill; 4 = 46-55% kill; 5 = 56-65% kill; 6 = 66-75% kill; 7 = 76-85% kill; 8 = 86-99% kill; 9 = 100% kill
Outline: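 Ten 2nd instar caterpillars feed on a Sieva lima bean leaf that was dipped 3 seconds in test solution (stock 10,000 ppm in 35% acetone/water, water-diluted). Five days later, larvae are assessed for death, feeding reduction or abnormal molting.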

[7] = tested on: Spodoptera eridania, eggs-southern armyworm (SAW-Eggs); test: Southern armyworm eggs (SAW-Eggs) treated diet test; set-up: key: 0 = no effect; 1 = 10-25% kill; 2 = 26-35% kill; 3 = 36-45% kill; 4 = 46-55% kill; 5 = 56-65% kill; 6 = 66-75% kill; 7 = 76-85% kill; 8 = 86-99% kill; 9 = 100% kill; conditions: mortality after 7 days
Outline: as §1

[8] = tested on: Aphis gossypii, cotton aphid (CA); test: Cotton aphid (CA) cotyledon dip test; set-up: key: 0 = no effect; 1 = 10-25% kill; 2 = 26-35% kill; 3 = 36-45% kill; 4 = 46-55% kill; 5 = 56-65% kill; 6 = 66-75% kill; 7 = 76-85% kill; 8 = 86-99% kill; 9 = 100% kill; conditions: mortality after 5 days
Outline: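 Mortality was scored 5 days after dipping aphid-infested cotyledons, colonised overnight from a transfer leaf, into water dilutions of a 35% acetone/water compound solution.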

COC(=O)CSC(C[N+](=O)[O-])c1cccc(C#N)c1 (racemic) [Example 98]
SCR Eggs (1000 ppm) rating [1]: 0 | TSM (300 ppm) rating [2]: 3 (3 = 36-45% kill) | M. incognita (150 ppm) score [3]: 0 | WCR (50 ppm) rating [4]: 0 | Rating Against C. elegans (150 ppm) [5]: 8 | SAW (300 ppm) rating [6]: 5 (5 = 56-65% kill) | SAW Eggs (300 ppm) rating [7]: 0 | CA (300 ppm) rating [8]: 0

CCOC(=O)CSC(C[N+](=O)[O-])c1cccc(C#N)c1 (racemic) [Example 99]
SCR Eggs (1000 ppm) rating [1]: 0 | TSM (300 ppm) rating [2]: 0 | M. incognita (150 ppm) score [3]: 0 | WCR (50 ppm) rating [4]: 0 | Rating Against C. elegans (150 ppm) [5]: 0 | SAW (300 ppm) rating [6]: 0 | SAW Eggs (300 ppm) rating [7]: 0 | CA (300 ppm) rating [8]: 0

CCCOC(=O)CSC(C[N+](=O)[O-])c1cccc(C#N)c1 (racemic) [Example 100]
SCR Eggs (1000 ppm) rating [1]: 0 | TSM (300 ppm) rating [2]: 0 | M. incognita (150 ppm) score [3]: 0 | WCR (50 ppm) rating [4]: 0 | Rating Against C. elegans (150 ppm) [5]: 8 | SAW (300 ppm) rating [6]: 0 | SAW Eggs (300 ppm) rating [7]: 0 | CA (300 ppm) rating [8]: 0

CCCCOC(=O)CSC(C[N+](=O)[O-])c1cccc(C#N)c1 (racemic) [Example 101]
SCR Eggs (1000 ppm) rating [1]: 0 | TSM (300 ppm) rating [2]: 0 | M. incognita (150 ppm) score [3]: 9 | WCR (50 ppm) rating [4]: 0 | Rating Against C. elegans (150 ppm) [5]: 0 | SAW (300 ppm) rating [6]: 0 | SAW Eggs (300 ppm) rating [7]: 0 | CA (300 ppm) rating [8]: 0

CCCOC(=O)CSC(C[N+](=O)[O-])c1ccc(OC)cc1 (racemic) [Example 102]
SCR Eggs (1000 ppm) rating [1]: 0 | TSM (300 ppm) rating [2]: 0 | M. incognita (150 ppm) score [3]: 9 | WCR (50 ppm) rating [4]: 0 | Rating Against C. elegans (150 ppm) [5]: 9 | SAW (300 ppm) rating [6]: 0 | SAW Eggs (300 ppm) rating [7]: 0 | CA (300 ppm) rating [8]: 0

C=CCSC(C[N+](=O)[O-])c1ccccc1 (stereo not drawn) [Example 2]
SCR Eggs (1000 ppm) rating [1]: 0 | M. incognita (150 ppm) score [3]: 9 | Rating Against C. elegans (150 ppm) [5]: 0 | SAW Eggs (300 ppm) rating [7]: 0

CCOC(=O)CSC(C[N+](=O)[O-])c1c(F)c(F)c(F)c(F)c1F (stereo not drawn) [Example 142]
SCR Eggs (1000 ppm) rating [1]: 0 | TSM (300 ppm) rating [2]: 0 | WCR (50 ppm) rating [4]: 9 (9 = 100% kill) | Rating Against C. elegans (150 ppm) [5]: 8 | SAW (300 ppm) rating [6]: 0 | SAW Eggs (300 ppm) rating [7]: 0 | CA (300 ppm) rating [8]: 4 (4 = 46-55% kill)

CCOC(=O)CSc1c(F)c(F)c(C(C[N+](=O)[O-])SCC(=O)OCC)c(F)c1F (stereo not drawn) [Example 143]
SCR Eggs (1000 ppm) rating [1]: 0 | TSM (300 ppm) rating [2]: 0 | WCR (50 ppm) rating [4]: 0 | Rating Against C. elegans (150 ppm) [5]: 0 | SAW (300 ppm) rating [6]: 0 | SAW Eggs (300 ppm) rating [7]: 0 | CA (300 ppm) rating [8]: 0

CCCOC(=O)CSC(C[N+](=O)[O-])c1c(F)c(F)c(F)c(F)c1F (stereo not drawn) [Example 144]
SCR Eggs (1000 ppm) rating [1]: 0 | TSM (300 ppm) rating [2]: 0 | WCR (50 ppm) rating [4]: 9 (9 = 100% kill) | Rating Against C. elegans (150 ppm) [5]: 7 | SAW (300 ppm) rating [6]: 0 | SAW Eggs (300 ppm) rating [7]: 0 | CA (300 ppm) rating [8]: 0

CCCOC(=O)CSc1c(F)c(F)c(C(C[N+](=O)[O-])SCC(=O)OCCC)c(F)c1F (stereo not drawn) [Example 145]
SCR Eggs (1000 ppm) rating [1]: 0 | TSM (300 ppm) rating [2]: 0 | WCR (50 ppm) rating [4]: 0 | Rating Against C. elegans (150 ppm) [5]: 0 | SAW (300 ppm) rating [6]: 0 | SAW Eggs (300 ppm) rating [7]: 0 | CA (300 ppm) rating [8]: 0

CCCCOC(=O)CSC(C[N+](=O)[O-])c1c(F)c(F)c(F)c(F)c1F (stereo not drawn) [Example 146]
SCR Eggs (1000 ppm) rating [1]: 0 | TSM (300 ppm) rating [2]: 0 | WCR (50 ppm) rating [4]: 8 (8 = 86-99% kill) | Rating Against C. elegans (150 ppm) [5]: 7 | SAW (300 ppm) rating [6]: 0 | SAW Eggs (300 ppm) rating [7]: 0 | CA (300 ppm) rating [8]: 0

CCCCOC(=O)CSc1c(F)c(F)c(C(C[N+](=O)[O-])SCC(=O)OCCCC)c(F)c1F (stereo not drawn) [Example 147]
SCR Eggs (1000 ppm) rating [1]: 0 | TSM (300 ppm) rating [2]: 0 | WCR (50 ppm) rating [4]: 0 | Rating Against C. elegans (150 ppm) [5]: 0 | SAW (300 ppm) rating [6]: 0 | SAW Eggs (300 ppm) rating [7]: 0 | CA (300 ppm) rating [8]: 0

O=[N+]([O-])CC(SCc1ccccc1)c1c(F)c(F)c(F)c(F)c1F (stereo not drawn) [Example 148]
SCR Eggs (1000 ppm) rating [1]: 0 | TSM (300 ppm) rating [2]: 0 | WCR (50 ppm) rating [4]: 0 | Rating Against C. elegans (150 ppm) [5]: 0 | SAW (300 ppm) rating [6]: 0 | SAW Eggs (300 ppm) rating [7]: 0 | CA (300 ppm) rating [8]: 0

O=[N+]([O-])CC(SCc1ccccc1)c1c(F)c(F)c(SCc2ccccc2)c(F)c1F (stereo not drawn) [Example 149]
SCR Eggs (1000 ppm) rating [1]: 0 | TSM (300 ppm) rating [2]: 0 | WCR (50 ppm) rating [4]: 0 | Rating Against C. elegans (150 ppm) [5]: 0 | SAW (300 ppm) rating [6]: 0 | SAW Eggs (300 ppm) rating [7]: 0 | CA (300 ppm) rating [8]: 0

COc1cccc(C(C[N+](=O)[O-])SCc2ccco2)c1 (stereo not drawn) [Example 158]
SCR Eggs (1000 ppm) rating [1]: 0 | TSM (300 ppm) rating [2]: 0 | WCR (50 ppm) rating [4]: 0 | Rating Against C. elegans (150 ppm) [5]: 9 | SAW (300 ppm) rating [6]: 0 | SAW Eggs (300 ppm) rating [7]: 0 | CA (300 ppm) rating [8]: 0

O=[N+]([O-])CC(SCc1ccccc1)c1ccco1 (stereo not drawn) [Example 203]
SCR Eggs (1000 ppm) rating [1]: 9 (9 = 100% kill) | TSM (300 ppm) rating [2]: 0 | WCR (50 ppm) rating [4]: 8 (8 = 86-99% kill) | Rating Against C. elegans (150 ppm) [5]: 9 | SAW (300 ppm) rating [6]: 0 | SAW Eggs (300 ppm) rating [7]: 9 (9 = 100% kill) | CA (300 ppm) rating [8]: 0
